“Also recorded” adds a separate entry of the source.
Legend:
[1] = target: T1, vesicular monoamine transporter 2 (VMAT2) (Homo sapiens, UniProt Q05940); assay: Fluorescent substrate uptake inhibition, VMAT2; assay type: cell-based; conditions: 10 μM, transfected cells
T1 construct: expressed in transfected cells

[2] = target: T2, serotonin transporter (SERT) (Homo sapiens, UniProt P31645); assay: Fluorescent substrate uptake inhibition, SERT; assay type: cell-based; conditions: 10 μM, HEK293 cells expressing SERT
T2 construct: expressed in transfected cells; host or cells: HEK293
T2 sequence (P31645 whole entry, species assumed): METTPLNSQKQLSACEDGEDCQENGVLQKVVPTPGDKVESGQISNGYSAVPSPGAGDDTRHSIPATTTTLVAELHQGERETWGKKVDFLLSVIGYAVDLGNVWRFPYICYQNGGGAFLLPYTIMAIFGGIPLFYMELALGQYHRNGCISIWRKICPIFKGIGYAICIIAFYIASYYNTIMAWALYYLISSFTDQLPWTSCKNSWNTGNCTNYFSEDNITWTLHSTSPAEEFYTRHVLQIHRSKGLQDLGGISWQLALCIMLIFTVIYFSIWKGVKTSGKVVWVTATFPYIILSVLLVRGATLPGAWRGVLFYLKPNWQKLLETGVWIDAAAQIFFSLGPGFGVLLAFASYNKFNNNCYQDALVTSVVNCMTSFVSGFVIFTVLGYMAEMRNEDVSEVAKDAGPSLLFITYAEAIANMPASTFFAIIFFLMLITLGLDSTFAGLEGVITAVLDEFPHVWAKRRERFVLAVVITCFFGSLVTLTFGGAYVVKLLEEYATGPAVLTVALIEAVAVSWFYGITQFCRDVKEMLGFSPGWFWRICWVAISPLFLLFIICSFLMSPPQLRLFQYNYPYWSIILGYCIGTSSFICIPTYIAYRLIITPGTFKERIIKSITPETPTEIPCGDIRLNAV

[3] = RLM stability (High Activity); assay type: in vitro ADME, Sprague Dawley rats
Protocol: (§1) RLM Stability (High Activity). Pooled RLM from male Sprague Dawley rats (XenoTech R1000, lot #1910100) were used. Microsomal incubations were carried out in 96-well plates in 5 aliquots of 40 μL each (one for each time point). Liver microsomal incubation medium consisted of PBS (100 mM, pH 7.4), MgCl2 (3.3 mM), NADPH (3 mM), glucose-6-phosphate (5.3 mM), and glucose-6-phosphate dehydrogenase (0.67 units/mL), with 1.0 mg of liver microsomal protein per mL. Control incubations were performed by replacing the NADPH-cofactor system with PBS. Test compounds (1 μM, final solvent concentration 1.6%) were incubated with microsomes at 37° C., shaking at 100 rpm. Incubations were performed in duplicate. Five time points over 60 minutes were analyzed. The reactions were stopped by adding 9 volumes of 90% acetonitrile-water to incubation aliquots, followed by protein sedimentation by centrifugation at 5500 rpm for 3 minutes. Supernatants were analyzed for parent compound remaining using a fit-for-purpose liquid chromatography-tandem mass spectrometry (LC-MS/MS) method, with authentic samples of each analyte used for identity confirmation.
Data Analysis. The elimination constant (kel), half-life (t1/2) and intrinsic clearance (Clint) were determined in a plot of […] versus time, using linear regression analysis.

[4] = Formation of metabolites 11R/11S in RLM (High Activity conditions); assay type: in vitro ADME, Sprague Dawley rats; conditions: LC-MS/MS
Protocol: as §1, with “The reactions were stopped by adding 9 volumes of 90% acetonitrile-water to incubation aliquots, followed by protein sedimentation by centrifugation at 5500 rpm for 3 minutes.” left out
This condition was also used for experiments measuring the formation of metabolite 11R from compounds 14R and 88R and formation of metabolite 11S from compounds 14S and 88S. The concentrations of 11R and 11S formed during the incubations were quantified using a fit-for-purpose liquid chromatography-tandem mass spectrometry (LC-MS/MS) method, with authentic samples of each analyte used for calibration and identity confirmation.

[5] = MLM stability (High Activity); assay type: in vitro ADME, BALB/c mice; conditions: male, BALB/c, mouse, liver microsomes, pH 7.4, Condition 2 (High Activity), 1.0 mg protein/mL
Summary of the method: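 Pooled male BALB/c mouse liver microsomes (1.0 mg/mL) in 100 mM PBS pH 7.4 with NADPH-regenerating system; compound 1 μM, 37 °C, five time points over 60 min, duplicate; NADPH-free controls. Parent remaining by LC-MS/MS; kel, t1/2 and Clint from linear regression of ln(AUC) versus time.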

[6] = HLM stability (High Activity); assay type: in vitro ADME; conditions: both sexes, human, liver microsomes, pH 7.4, Condition 2 (High Activity), 1.0 mg protein/mL
Summary of the method: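 Pooled male and female human liver microsomes, 1.0 mg protein/mL, in 100 mM PBS pH 7.4 with NADPH-regenerating system; compound 1 μM at 37° C, five time points over 60 min. Parent remaining by LC-MS/MS; kel, t1/2 and Clint from linear regression of ln(AUC) versus time.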

[7] = target: T3, norepinephrine transporter (NET) (Homo sapiens, UniProt P23975); assay: Fluorescent substrate uptake inhibition, NET; assay type: cell-based; conditions: 10 μM, HEK293 cells expressing NET
T3 construct: expressed in transfected cells; host or cells: HEK293
T3 sequence (P23975 whole entry, species assumed): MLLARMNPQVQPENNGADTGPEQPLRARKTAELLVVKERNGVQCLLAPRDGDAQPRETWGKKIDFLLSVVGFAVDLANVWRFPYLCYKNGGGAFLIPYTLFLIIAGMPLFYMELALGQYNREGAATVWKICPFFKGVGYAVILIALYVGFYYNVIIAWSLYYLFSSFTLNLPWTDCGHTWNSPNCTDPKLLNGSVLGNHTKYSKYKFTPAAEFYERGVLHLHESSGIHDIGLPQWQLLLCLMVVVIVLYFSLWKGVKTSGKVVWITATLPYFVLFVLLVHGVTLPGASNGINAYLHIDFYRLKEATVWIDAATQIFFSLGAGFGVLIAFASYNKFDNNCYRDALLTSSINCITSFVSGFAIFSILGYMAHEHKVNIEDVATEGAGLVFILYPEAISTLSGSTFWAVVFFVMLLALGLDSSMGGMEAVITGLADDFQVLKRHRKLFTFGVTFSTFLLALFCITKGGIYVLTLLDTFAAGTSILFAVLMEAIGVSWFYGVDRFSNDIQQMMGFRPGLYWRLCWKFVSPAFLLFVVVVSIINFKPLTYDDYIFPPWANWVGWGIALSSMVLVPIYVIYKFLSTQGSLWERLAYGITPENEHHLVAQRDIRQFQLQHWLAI

[8] = target: T4, dopamine transporter (DAT) (Homo sapiens, UniProt Q01959); assay: Fluorescent substrate uptake inhibition, DAT; assay type: cell-based; conditions: 10 μM, CHO cells expressing DAT
T4 construct: expressed in transfected cells; host or cells: CHO (uptake)
T4 sequence (Q01959 whole entry, species assumed): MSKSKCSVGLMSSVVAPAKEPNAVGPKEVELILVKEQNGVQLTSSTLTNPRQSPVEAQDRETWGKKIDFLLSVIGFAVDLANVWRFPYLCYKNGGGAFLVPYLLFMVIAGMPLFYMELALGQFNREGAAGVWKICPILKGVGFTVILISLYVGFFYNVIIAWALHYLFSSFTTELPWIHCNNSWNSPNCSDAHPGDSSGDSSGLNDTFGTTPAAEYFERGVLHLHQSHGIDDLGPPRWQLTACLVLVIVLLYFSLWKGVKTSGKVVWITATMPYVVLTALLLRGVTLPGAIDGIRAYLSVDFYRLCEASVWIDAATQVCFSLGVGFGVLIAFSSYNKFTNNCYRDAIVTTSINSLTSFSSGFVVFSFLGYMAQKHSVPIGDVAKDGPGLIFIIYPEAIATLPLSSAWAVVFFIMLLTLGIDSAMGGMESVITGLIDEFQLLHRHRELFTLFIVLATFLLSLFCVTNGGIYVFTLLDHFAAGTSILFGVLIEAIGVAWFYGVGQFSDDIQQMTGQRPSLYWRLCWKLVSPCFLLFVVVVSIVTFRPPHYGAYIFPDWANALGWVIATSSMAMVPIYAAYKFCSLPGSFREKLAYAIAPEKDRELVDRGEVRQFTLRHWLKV

[9] = target: MK-801 binding site of the N-methyl-D-aspartate receptor (NMDAR); assay: NMDAR radioligand binding with [3H]MK-801, Method B; design: species or system Sprague Dawley rat; conditions: MK-801 site, Method B, male Sprague Dawley rat cortex, 5.0 nM [3H]MK-801; read-out: NMDAR Ki ± SEM
Protocol: Radioligand Binding—Method B. Affinity of the test compounds for NMDAR was determined in radioligand binding experiments with [^3H]MK-801 by WuXi AppTec (Hong Kong) Limited, under the conditions described in Table 13.

[10] = system: T5, monoamine transporters, MATs (SERT, NET, DAT, VMAT2); assay: Monoamine uptake inhibition, monoamine transporters collectively; assay type: cell-based; conditions: uptake inhibition
T5 construct: rows headed: activity at MATs; stably transfected cells expressing the MAT of interest (HEK293 cells for SERT and NET)
Protocol: The ability of the compounds of the present invention to inhibit uptake of monoamines by the serotonin transporter (SERT), norepinephrine transporter (NET), dopamine transporter (DAT), and vesicular monoamine transporter 2 (VMAT2) (collectively monoamine transporters, MATs) was measured using fluorescent substrate uptake assays in transfected cells (Table 14). The binding affinities of select compounds were also determined in radioligand displacement assays at SERT, NET, and/or DAT (Table 14).
Uptake Inhibition. The ability of test compounds to block monoamine uptake by SERT, NET, DAT, and VMAT2 was determined using the Neurotransmitter Transporter Uptake Assay Kit manufactured by Molecular Devices (Cat #R8173). Briefly, stably transfected cells expressing the MAT of interest (HEK293 cells for SERT and NET; CHO cells for DAT) were grown and plated into 384-well plates at a concentration of 20,000 cells per well. Plates were then incubated for 16-20 h at 37° C. and 5% CO2. The medium was then aspirated and replaced with 25 μL of assay buffer (20 mM HEPES in HBSS, containing 0.1% BSA) containing the test compounds at the appropriate concentrations. Plates were then centrifuged at 300 rpm for 15 s and then incubated at 37° C. for 30 minutes. At this time, 25 μL of the proprietary fluorescent dye solution was added, the plates were incubated at 37° C. for 60 minutes, and then fluorescence was quantified on a plate reader (excitation wavelength=440 nm, emission wavelength=520 nm). The proprietary dye solution contains a mixture of 1) a fluorescent dye that mimics the endogenous substrates of MATs and is thereby actively transported to the intracellular compartment in the absence of an inhibitor and 2) a masking dye that inhibits the fluorescence of dye 1 in the extracellular compartment. Therefore, the overall fluorescence of the system increases as the fluorescent dye is transported into the cells.

[11] = male, Sprague Dawley, rat, liver microsomes, pH 7.4, Condition 2 (High Activity), 1 μM, 1.0 mg protein/mL

T1 sequence (Q05940 whole entry, species assumed): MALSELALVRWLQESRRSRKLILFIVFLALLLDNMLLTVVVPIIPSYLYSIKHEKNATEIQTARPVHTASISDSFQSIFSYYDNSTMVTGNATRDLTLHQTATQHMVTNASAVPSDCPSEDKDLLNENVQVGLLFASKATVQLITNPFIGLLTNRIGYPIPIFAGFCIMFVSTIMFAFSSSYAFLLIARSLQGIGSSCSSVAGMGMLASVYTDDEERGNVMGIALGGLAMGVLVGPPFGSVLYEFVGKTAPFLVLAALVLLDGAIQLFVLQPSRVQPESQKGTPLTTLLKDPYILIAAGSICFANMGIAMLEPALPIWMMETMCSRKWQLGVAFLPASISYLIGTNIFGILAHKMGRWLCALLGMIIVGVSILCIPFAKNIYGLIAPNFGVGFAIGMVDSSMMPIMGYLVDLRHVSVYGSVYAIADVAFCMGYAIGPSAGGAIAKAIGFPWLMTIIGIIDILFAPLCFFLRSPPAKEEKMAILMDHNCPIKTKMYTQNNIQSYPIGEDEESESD

SMILES: [2H]C([2H])([2H])N[C@]1(c2ccccc2)CCCCC1=O [Compound 88S, (S)-2-((methyl-d3)amino)-2-phenylcyclohexan-1-one]
- inhibition at 10 µM [1]: -6%
- inhibition at 10 µM [2]: 28.2%
- metabolic stability compared to non-deuterated counterparts 14R and 14S ([3]; High Activity): increased metabolic stability
- half-life at 1 μM [3, 11]: 0.88 h
- microsomal CLint at 1 μM [3, 11]: 13 µL/min/mg
- formation of metabolites 11R and 11S compared to non-deuterated counterparts [4]: attenuated formation; also recorded: decreased formation
- half-life at 1 μM [5]: 1.86 h
- microsomal CLint at 1 μM [5]: 6 µL/min/mg
- half-life at 1 μM [6]: 2.78 h
- microsomal CLint at 1 μM [6]: 4 µL/min/mg
- inhibition at 10 µM [7]: 21.6%
- inhibition at 10 µM [8]: 18.6%
- Ki [9]: 800 nM

SMILES: O=C1CCCCC1(c1ccccc1)N1CCOCC1 (centres unmarked) [Compound 31]
- activity at MATs [10]: almost no activity

— patent publication US11344510B2, “Arylcyclohexylamine derivatives and their use in the treatment of psychiatric disorders” (Gilgamesh Pharmaceuticals, Inc., priority 2019, dated 2022)
